Assay [1] relates to monoclonal antibodies reactive with 2,3,7,8-TCDD in hybridoma culture supernatants (the 6 of 384 cultures positive by CIEIA). Briefly: competitive inhibition enzyme immunoassay (CIEIA) of hybridoma culture supernatants. The class given is binding, BALB/c mice. Particulars: culture supernatants preincubated with 1.0 × 10⁻⁴ M 2,3,7,8-TCDD; plates coated with BSA-adipamidoyl,3,7,8-trichlorodibenzo-p-dioxin conjugate; 6 positive cultures; 100 µM.

Assay [2] has as its system ATCC HB 9183 antibody (monoclonal antibody, IgG1, produced by hybridoma ATCC HB 9183). As to the kind of experiment: competitive inhibition enzyme immunoassay (CIEIA) with ATCC HB 9183 culture supernatant. The assay is classed as binding, BALB/c mice. Conditions: 1:5 dilution of culture supernatant preincubated 1 hour at room temperature with various concentrations of TCDD; linear curve in Figure 3.

For `Clc1cc2c(cc1Cl)Oc1cc(Cl)c(Cl)cc1O2` [2,3,7,8-TCDD, 2,3,7,8-tetrachlorodibenzo-p-dioxin], the “inhibition of antibody binding to the solid phase-bound conjugate” value in assay [1] is given as “at least 50%”. Moreover, the “binding of antibody to free TCDD (CIEIA, Figure 3)” value in assay [2] is on record as “binds directly to free TCDD”.

Values taken from patent EP0258006A2, “Monoclonal antibodies reactive with chlorinated dibenzo-p-dioxins and method of preparing and using same” (WE[…] CORPORATION, priority 1986, dated 1988).
